# Experimental data: patent US20150150266A1, “PESTICIDE COMPOUNDS, USE THEREOF AND METHOD OF PROTECTION OF PLANTS” (AGRA GROUP, A.S., priority 2012, published 2015)
# Marks after values point to notes of the source that are not given here.
# Assays:
# Aspergillus flavus = experiment: Fungal mycelium growth inhibition assay (agar dilution); format: cell-based; details: 7 days at 21° C.
# Description: (§1) The assay for inhibitory activity of compounds of general formula (I) to radial growth and morphological effects to mycelia was carried out in agar by a multiple dilution method. The compound was diluted to concentrations shown in the Table in potato dextrose agar prepared in accordance with manufacturer's instructions. Petri dishes were filled with the thus prepared agar and aseptically inoculated with a disc of the diameter of 0.4 cm cut from a 7-day agar culture of the respective fungus. Controls were prepared in an analogous manner, using sterile distilled water instead of compound of general formula (I). The Petri dishes were incubated for 7 days at 21° C. and then the diameter of the colonies was measured. The percentage of inhibition of radial growth of the respective fungus was calculated according to the following equation: inhibition [%]=(DC-DT)/DC×100, wherein DC is the diameter of control colony and DT is the diameter of the colony grown on the agar containing the respective amount of compound of general formula (I). Standard deviation corresponds to averages from 3 replications.
# (§2) The compound Cu2SO3.CuSO3.2H2O inhibited the growth of all tested mycelia (Table 1). Individual micelia have shown a variation in the sensitivity to the compound and concentration dependency on the fungicide dose was observed.
# Aspergillus fumigatus = experiment: as above; format: cell-based; details: 7 days at 21° C.
# Description: as §1, §2
# Fusarium oxysporum = experiment: as above; format: cell-based; details: 7 days at 21° C.
# Description: as §1, §2
# Fusarium verticillioides = experiment: as above; format: cell-based; details: 7 days at 21° C.
# Description: as §1, §2
# [1] = system: Penicillium brevicompactum; experiment: as above; format: cell-based; details: 7 days at 21° C.
# Description: as §1, §2
# Penicillium expansum = experiment: as above; format: cell-based; details: 7 days at 21° C.
# Description: as §1, §2
# Hordeum vulgare L. = experiment: Field trial with crops, foliar spraying at BBCH 62; format: in vivo; details: for Yield / Yield, % of the control: foliar spraying of wettable powder A; for Yield, % of the control: control = water
# Description: (§3) The experimental field was chosen in a warm region suitable for beet cultivation, with sufficient precipitation, soil type was brown earth. The plants were treated using a common agrotechnology, with the exception of the application of fungicidal protection. […] Water was used as the negative control.
# (§4) At the end of the vegetative season, the crops were harvested and the yield was determined.
# Triticum aestivum L. = experiment: Field trial with crops, foliar spraying at BBCH 62; format: in vivo; details: for Yield / Yield, % of the control: foliar spraying of wettable powder A; for Yield, % of the control: control = water
# Description: as §3, §4
structure (smiles),measurement,setting,value
"O.O.O=S([O-])[O-].O=S([O-])[O-].[Cu+2].[Cu+].[Cu+] [Cu2SO3•CuSO3•2H2O, Cu2SO3.CuSO3.2H2O (Chevreul's salt)]",Percentage of radial growth inhibition,Aspergillus flavus; 0.3 mg/mL agar,97.67 ± 0.05%
same,Percentage of radial growth inhibition,Aspergillus flavus; 0.4 mg/mL agar,98.84 ± 0.05%
same,Percentage of radial growth inhibition,Aspergillus flavus; 0.5 mg/mL agar,100.00 ± 0.00%
same,Percentage of radial growth inhibition,Aspergillus fumigatus; 0.3 mg/mL agar,100.00 ± 0.00%
same,Percentage of radial growth inhibition,Aspergillus fumigatus; 0.4 mg/mL agar,100.00 ± 0.00%
same,Percentage of radial growth inhibition,Aspergillus fumigatus; 0.5 mg/mL agar,100.00 ± 0.00%
same,Percentage of radial growth inhibition,Fusarium oxysporum; 0.3 mg/mL agar,6.72 ± 0.05% ^1)
same,Percentage of radial growth inhibition,Fusarium oxysporum; 0.4 mg/mL agar,59.70 ± 0.16% ^1)
same,Percentage of radial growth inhibition,Fusarium oxysporum; 0.5 mg/mL agar,97.76 ± 0.00%
same,Percentage of radial growth inhibition,Fusarium verticillioides; 0.3 mg/mL agar,−2.81 ± 0.00% ^2)
same,Percentage of radial growth inhibition,Fusarium verticillioides; 0.4 mg/mL agar,19.10 ± 0.16% ^2)
same,Percentage of radial growth inhibition,Fusarium verticillioides; 0.5 mg/mL agar,30.90 ± 0.00% ^2)
same,Percentage of radial growth inhibition,[1]; 0.3 mg/mL agar,77.78 ± 0.09%
same,Percentage of radial growth inhibition,[1]; 0.4 mg/mL agar,95.24 ± 0.00%
same,Percentage of radial growth inhibition,[1]; 0.5 mg/mL agar,100.00 ± 0.00%
same,Percentage of radial growth inhibition,Penicillium expansum; 0.3 mg/mL agar,98.37 ± 0.05%
same,Percentage of radial growth inhibition,Penicillium expansum; 0.4 mg/mL agar,96.75 ± 0.05%
same,Percentage of radial growth inhibition,Penicillium expansum; 0.5 mg/mL agar,100.00 ± 0.00%
same,Yield,"Hordeum vulgare L.; 2011, 125 g/ha",8.65 t/ha
same,"Yield, % of the control","Hordeum vulgare L.; 2011, 125 g/ha",103.2%
same,Yield,"Hordeum vulgare L.; 2011, 625 g/ha",8.73 t/ha
same,"Yield, % of the control","Hordeum vulgare L.; 2011, 625 g/ha",104.2%
same,Phytotoxic effects,"Hordeum vulgare L.; 2011, high dose 625 g/ha",No phytotoxic effects were observed even at this dose
same,Occurrence of fusarioses or other fungal diseases,"Hordeum vulgare L.; field trial, doses of Table 3",neither occurrence of fusarioses or other fungal diseases
same,Phytotoxic effects,"Hordeum vulgare L.; field trial, doses of Table 3",No phytotoxic effects were observed
same,Yield,"Triticum aestivum L.; 2010, 125 g/ha",7.34 t/ha
same,"Yield, % of the control","Triticum aestivum L.; 2010, 125 g/ha",104.7%
same,Yield,"Triticum aestivum L.; 2011, 125 g/ha",8.45 t/ha
same,"Yield, % of the control","Triticum aestivum L.; 2011, 125 g/ha",108.1%
same,Yield,"Triticum aestivum L.; 2011, 625 g/ha",8.60 t/ha
same,"Yield, % of the control","Triticum aestivum L.; 2011, 625 g/ha",110.1%
same,Phytotoxic effects,"Triticum aestivum L.; 2011, high dose 625 g/ha",No phytotoxic effects were observed even at this dose
same,Occurrence of fusarioses or other fungal diseases,"Triticum aestivum L.; field trial, doses of Table 3",neither occurrence of fusarioses or other fungal diseases
same,Phytotoxic effects,"Triticum aestivum L.; field trial, doses of Table 3",No phytotoxic effects were observed
